The values that follow come from paper PMC8163091, “Production of novel pladienolide analogues through native expression of a pathway-specific activator” (Chemical Science, 2020).

Type in all cases: cell-based
Assay [1] has as its system DU145 human prostate cancer cell ATCC HTB-81. The experiment in a line: Antitumour resazurin assay, DU145 prostate cancer cells. Conditions: DU-145, 96 h, read-out: IC50 ± 95% confidence interval, DU145. As for the experimental part:
(§1) To ascertain the bioactivity of all compounds the inhibitory concentrations of 1–6 were measured against bacteria (Bacillus subtilis ATCC 6633 and Staphylococcus aureus ATCC 25923), yeasts (Candida albicans ATCC 10231 and Saccharomyces cerevisiae ATCC 9763), a protozoan (Tritrichomonas foetus), and mammalian cell lines (NS-1 mouse myeloma ATCC TIB-18 and NFF human neonatal foreskin fibroblast cells ATCC PCS-201). […] Given this selectivity, the IC50 values for each compound 1–5versus NS-1, NFF and DU145 human prostate cancer cell ATCC HTB-81 were ascertained by a resazurin-based assay (Table 2). […]
(§2) 1.7. Assays for Biological Activity
(§3) Purified metabolites (1 – 6) were dissolved in DMSO to provide stock solutions (1,000 µg/mL or 40 µg/mL). Bioassays were carried out in 96-well microtitre plates containing two-fold serial dilutions to yield ranges of 10 to 0.005 µg mL-1 or 0.4 to 0.0002 µg mL-1, in 1% DMSO. […]
(§4) To assay antitumour activity, NS -1 ATCC TIB-18 mouse myeloma , DU145 prostate cancer cells (ATCC HTB-81), and NFF (ATCC PCS -201) human neonatal foreskin fibroblast cells were each inoculated in 96 -well microtitre plates (190 µL) at 50,000 cells mL-1 in DMEM (Dulbecco's Modified Eagle Medium + 10% v/v fetal bovine serum (FBS) + 1% v/v penicillin/streptomycin (10,000U mL-1/ 10,000 µg mL-1, Life Technologies Cat. No. 15140122), together with resazurin (250 µg/mL; 10 µL) and incubated at 37 °C (5% CO2). The plates were incubated for 96 h. Absorbance was measured using a Spectromax plate reader (Molecular Devices) at 605 nm for % inhibition, and IC50 values determined.
Background: The colour change of resazurin is a common sign of viable cells or microbes.

Assay [2] deals with NS-1 mouse myeloma ATCC TIB-18. The experiment in a line: Antitumour resazurin assay, NS-1 mouse myeloma cells. Conditions: 96 h; for IC50: Mus musculus, read-out: IC50 ± 95% confidence interval, NS-1; for MIC, NS-1: NS-1 mouse myeloma ATCC TIB-18. As to the method: as §1, §2, §3, §4
The subject of assay [3] is Candida albicans ATCC 10231. The assay can be described thus: Antifungal assay, C. albicans. Conditions: ATCC10231, 24 °C, 48 h, read visually. As for the experimental part:
as §1, §2, §3
(§5) Antifungal assays were carried out using Candida albicans ATCC 10231 and Saccharomyces cerevisiae ATCC 9763 as indicative species for antifungal activity. A yeast suspension (50 mL in 250 mL flask) was prepared in malt extract broth (1.0 g L-1 bacteriological peptone (Bacto), 20.0 g L-1 malt extract […]
(§6) (Bacto), 20 g L-1 glucose (Country Brewers)) by cultivation for 24 h at 250 rpm, 24 °C. The suspension was diluted to an absorbance of 0.005 and 0.03 absorbance units [ OD400] per mL for C. albicans and S. cerevisiae, respectively. Aliquots (20 µL and 30 µL) of C. albicans and S. cerevisiae, respectively were applied to the wells of a 96-well microtitre plate, which contained the test compounds dispersed in malt extract broth containing bromocresol green (50 µg mL-1). The plates were incubated at 24 °C for 48 h during which time the positive control wells change colour from a blue to yellow colour. MIC end points were determined visually. […]
(§7) To assay antitumour activity, NS -1 ATCC TIB-18 mouse myeloma , DU145 prostate cancer cells (ATCC HTB-81), and NFF (ATCC PCS -201) human neonatal foreskin fibroblast cells were each

Assay [4] relates to NFF human neonatal foreskin fibroblast cells ATCC PCS-201. The assay can be described thus: Resazurin assay, NFF human neonatal foreskin fibroblast cells. Conditions: for IC50: Homo sapiens, Fibroblast, read-out: IC50 ± 95% confidence interval, NFF; for IC50 / MIC, NFF: 96 h; for MIC, NFF: NFF human neonatal foreskin fibroblast ATCC PCS-201. As for the experimental part:
as §1, §2, §3, §4

Assay [5] concerns Saccharomyces cerevisiae ATCC 9763. The assay can be described thus: Antifungal assay, S. cerevisiae. The conditions noted are these: ATCC9763, 24 °C, 48 h, read visually. As to the method:
as §1, §2, §3, §5, §6, §7

In assay [6] the test system is Staphylococcus aureus ATCC 25923. The experiment in a line: Antibacterial assay, S. aureus. The conditions noted are these: ATCC25923, 28 °C, 48 h, read visually. As for the experimental part: as §1, §2
(§8) Purified metabolites (1 – 6) were dissolved in DMSO to provide stock solutions (1,000 µg/mL or 40 µg/mL). Bioassays were carried out in 96-well microtitre plates containing two-fold serial dilutions to yield ranges of 10 to 0.005 µg mL-1 or 0.4 to 0.0002 µg mL-1, in 1% DMSO. Wells containing no test compound as a reference for no inhibition, and uninoculated wells were used as a reference for complete […]
(§9) Antibacterial assays were carried out using Bacillus subtilis ATCC 6633 and Staphylococcus aureus ATCC 25923 as indicative species for Gram-positive activity. A bacterial suspension (50 mL in 250 mL flask) was prepared in nutrient broth media (5.0 g L-1 bacteriological peptone (Bacto), 5.0 g L-1 NaCl (Chem-supply), 2.0 g L-1 yeast extract (Bacto), 1.0 g L-1 beef extract (Bacto)) by cultivation for 24 h at 250 rpm, 28 °C. The suspension was diluted to an absorbance of 0.01 absorbance units per mL [OD400 nm] and aliquots (10 µL) were added to the wells of a 96 -well microtitre plate containing the test compounds dispersed in nutrient broth with resazurin (12.5 µg mL-1). The plates were incubated at 28 °C for 48 h, during which time the positive control wells change colour from a blue to light pink colour. MICs were determined visually. […]

The subject of assay [7] is Bacillus subtilis ATCC 6633. The experiment in a line: Antibacterial assay, B. subtilis. Conditions: ATCC6633, 28 °C, 48 h, read visually. As for the experimental part: as §1, §2, §8, §9
Assay [8] relates to mammalian cell lines. The experiment in a line: Inhibitory activity against mammalian cell lines (summary across NS-1, DU145, NFF). As to the method:
To ascertain the bioactivity of all compounds the inhibitory concentrations of 1–6 were measured against bacteria (Bacillus subtilis ATCC 6633 and Staphylococcus aureus ATCC 25923), yeasts (Candida albicans ATCC 10231 and Saccharomyces cerevisiae ATCC 9763), a protozoan (Tritrichomonas foetus), and mammalian cell lines (NS-1 mouse myeloma ATCC TIB-18 and NFF human neonatal foreskin fibroblast cells ATCC PCS-201). […] Given this selectivity, the IC50 values for each compound 1–5versus NS-1, NFF and DU145 human prostate cancer cell ATCC HTB-81 were ascertained by a resazurin-based assay (Table 2).
as §6
Cat. No. 15140122), 10% v/v new born calf serum (NBCS), Life Technologies). […] T. foetus proliferation was measured at 72 h . […]

Structures are written as SMILES. ≈ marks a conversion by molar mass, not a printed value. Bounds are passed on as bounds.

Regarding `CC[C@H](O)[C@@H](C)[C@H]1O[C@@H]1C[C@H](C)/C=C/C=C(\C)[C@H]1OC(=O)C[C@H](O)CC[C@@](C)(O)[C@@H](OC(C)=O)/C=C/[C@@H]1C` [Compound 1, pladienolide B], the half-maximal inhibitory concentration (IC50) – broadly, the concentration that inhibits the measured activity by half – in assay [1] worked out at 7.5 ± 3.5 nM; in assay [2], 5.6 ± 0.6 nM; in assay [4] it was 13 ± 4.1 nM. The “MIC, NS-1” value in assay [2] worked out at 0.001 µg/mL (≈ 0.00186 µM). The minimum inhibitory concentration (MIC) (commonly the lowest concentration that inhibits growth of the organism) in assay [3] is more than 20 µg/mL; in assay [5], more than 20 µg/mL; in assay [6] it was more than 10 µg/mL; in assay [7], more than 10 µg/mL. Also, in assay [4], the “MIC, NFF” value amounted to 0.013 µg/mL (≈ 0.0242 µM).

For the molecule `CC[C@H](O)[C@@H](C)[C@H]1O[C@@H]1C[C@H](C)/C=C/C=C(\C)[C@H]1OC(=O)C[C@H](O)CC[C@H](C)[C@@H](OC(C)=O)/C=C/[C@@H]1C` [Compound 2, 6-deoxypladienolide B], the IC50 in assay [1] stood at 9.6 ± 5.8 nM; in assay [2] it was 40.3 ± 3.7 nM; in assay [4], 27 ± 14 nM. In assay [2], the “MIC, NS-1” value stood at 0.001 µg/mL (≈ 0.00192 µM). For the same molecule, the MIC in assay [3] was more than 20 µg/mL; in assay [5], more than 20 µg/mL; in assay [6] it was more than 10 µg/mL; in assay [7], more than 10 µg/mL. Moreover, the “MIC, NFF” value in assay [4] stood at 0.04 µg/mL (≈ 0.0768 µM). Moreover, the “Fold less effective than 1” value in assay [8] (depending on the cell line) was not above 8 fold.

Consider `CC[C@H](O)[C@@H](C)/C=C/C[C@H](C)/C=C/C=C(\C)[C@H]1OC(=O)C[C@H](O)CC[C@@](C)(O)[C@@H](OC(C)=O)/C=C/[C@@H]1C` [Compound 3, Δ18,19-pladienolide B], for which the IC50 in assay [1] was 96 ± 27 nM; in assay [2], more than 770 nM; in assay [4], 319 ± 61 nM. For the same molecule, the “MIC, NS-1” value in assay [2] turned out to be 0.05 µg/mL (≈ 0.096 µM). The MIC was more than 20 µg/mL in assay [3], more than 20 µg/mL in assay [5], more than 10 µg/mL in assay [6] and more than 10 µg/mL in assay [7]. For the same molecule, the “MIC, NFF” value in assay [4] was 0.6 µg/mL (≈ 1.15 µM). For the same molecule, in assay [8] (across cell lines), the “IC50 values, times greater than those of 1” value is listed as “up to twenty-five”.

For the molecule `CC[C@H](O)[C@@H](C)/C=C/C[C@H](C)/C=C/C=C(\C)[C@H]1OC(=O)C[C@H](O)CC[C@H](C)[C@@H](OC(C)=O)/C=C/[C@@H]1C` [Compound 4, Δ18,19-6-deoxypladienolide B], the concentration for half-maximal inhibition (IC50) in assay [1] is 264 ± 79 nM; in assay [2], more than 790 nM; in assay [4], more than 790 nM. In addition, the “MIC, NS-1” value in assay [2] turned out to be 0.1 µg/mL (≈ 0.198 µM). In addition, the MIC in assay [3] is more than 20 µg/mL; in assay [5], more than 20 µg/mL; in assay [6], more than 10 µg/mL; in assay [7] it was more than 10 µg/mL. Further, the “MIC, NFF” value in assay [4] is 0.4 µg/mL (≈ 0.793 µM).

Regarding `CC[C@H](O)[C@@H](C)/C=C/C[C@H](C)/C=C/C=C(\C)[C@H]1OC(=O)C[C@H](O)CC[C@H](C)[C@@H](O)/C=C/[C@@H]1C` [Compound 5, Δ18,19-6-deoxy-7-desacetylpladienolide B], in assay [2], the “MIC, NS-1” value turned out to be 0.63 µg/mL (≈ 1.36 µM). For the same molecule, the MIC in assay [3] was more than 20 µg/mL; in assay [5] it was more than 20 µg/mL; in assay [6], more than 10 µg/mL; in assay [7], more than 10 µg/mL. The IC50 in assay [4] turned out to be 8100 ± 1800 nM. Also, in assay [4] (NFF), the “Activity, times lower than 1 against NFF” value is on record as more than 600 times. Further, the “MIC, NFF” value in assay [4] turned out to be 10 µg/mL (≈ 21.6 µM).

For `CC[C@@H]1O[C@@H](C[C@H](C)/C=C/C=C(\C)[C@H]2OC(=O)C[C@H](O)CC[C@@](C)(O)[C@@H](OC(C)=O)/C=C/[C@@H]2C)[C@H](O)[C@@H]1C` [Compound 6, isopladienolide B], in assay [2], the “MIC, NS-1” value came out at 0.08 µg/mL (≈ 0.149 µM). Moreover, the minimum inhibitory concentration (MIC) is more than 20 µg/mL in assay [3], more than 20 µg/mL in assay [5], more than 10 µg/mL in assay [6] and more than 10 µg/mL in assay [7]. Also, in assay [4], the “MIC, NFF” value is 1.25 µg/mL (≈ 2.33 µM).
